Five molecules from patent US20240174691A1, “PYRIMIDINE-FUSED CYCLIC COMPOUND, PREPARATION METHOD THEREFOR AND USE THEREOF” (GENFLEET THERAPEUTICS (SHANGHAI) INC., priority 2021, published 2024) can be followed below.

What all share (type): cell-based, human
One experiment concerns AsPC-1 cells (KRAS G12D). The experiment is described as follows: Cell proliferation inhibition assay, 3D cell model (CellTiter-Glo 3D), AsPC-1. Conditions: AsPC-1 3D sphere plate, 5 days incubation. The source says:
(§1) AsPC-1 was purchased from ATCC; catalog No: CRL-1682; AGS was purchased from ATCC; catalog No: CRL-1739; RPMI1640 was purchased from Gibco; catalog No: 11875-093 2235123; F12K was purchased from Gibco; catalog No: 21127-022; FBS was purchased from Gibco; catalog No: 10099-141C; trypsin (containing EDTA) was purchased from Gibco; catalog No: 25200-072; CellTiter Glo-3D was purchased from Progema; catalog No: G9683; 384-well sphere plates were purchased from Corning; catalog No: 3830; opaque 384-well plates with a white background were purchased from Corning; catalog No: 3570; cell counters were purchased from CHEMOMETEC; model: NC-200; microplate reader was purchased from PerkinElmer; model: Envison;
(§2) AsPC-1 is an endogenous human pancreatic cancer cell containing KRAS^G12D mutation, cultured in RPMI-1640 medium containing 10% FBS; AGS is a human gastric cancer cell line containing KRAS^G12D, cultured in F-12K medium containing 10% FBS. Cells in the logarithmic growth phase were taken, digested with trypsin (containing EDTA), collected, and counted. 800 AsPC-1 cells/well or 400 AGS cells/well, respectively, were seeded in a 384-well sphere plate and cultured overnight at 5% CO2 to establish a 3D cell model. 1000× stock solutions of compounds at a 3.16-fold concentration gradient of were prepared using DMSO, diluted 100-fold into a 10× compound stock solution using the medium described above. The 10× compound stock solution was added to each cell on 2nd day after cell seeding at a final concentration of 1× and a DMSO content of 0.1%. DMSO was used as an experimental control, and the medium was used as blank. After the addition of the compounds, the cells were incubated for 5 days. 30 μl of CellTiter-Glo work solution was added to each well, mixed well, and incubated for 30 minutes. After standing at room temperature for 30 minutes, 40 μl of the mixed solution was transferred to an opaque 384-well plate with a white clear bottom. Luminescence chemiluminescence value was read by a microplate reader, and the cell proliferation inhibition rate (IR (%)=(RLU control−RLU compound)/(RLU control−RLU blank)×100%) was calculated. The gradiently diluted concentration of the compounds and corresponding cell proliferation inhibition rate were fitted using XLFit four-parameters method, and the IC50 value was calculated.

The test system of experiment [1] is p-ERK in AGS cells containing the KRAS G12D mutation. The experiment is described as follows: Cell p-ERK assay (HTRF, Advance ERK phospho-T202/Y204 kit). Conditions: 3 hours incubation with compound. As for the experimental part: AGS was purchased from ATCC; catalog No: CRL-1739; F12K was purchased from Gibco; catalog No: 21127-022; FBS was purchased from Gibco; catalog No: 10099-141C; trypsin (containing EDTA) was purchased from Gibco; catalog No: 25200-072; DMSO was purchased from VWRAMMESCO; catalog No: 0231-500ML; 96-well cell culture plates were purchased from Corning; catalog No: 3599; opaque 96-well plates with a white background were purchased from Cisbio; catalog No: 66PL96025; Advance ERK phospho-T202/Y204 kit was purchased from Cisbio; catalog No: 64AERPEH; cell counters were purchased from CHEMOMETEC; model No: NC-200; microplate reader was purchased from PerkinElmer; model No: Envison.
AGS is an endogenous human gastric adenocarcinoma cell line containing the KRAS^G12D mutation, cultured in F12K+10% FBS medium. On the first day of the experiment, cells in the logarithmic growth phase were taken, digested with trypsin (containing EDTA), collected, and counted. Approximately 20000 cells/well were seeded in a 96-well cell culture plate and cultured overnight in an incubator with 5% CO2. 1000× stock solutions of compounds at a 3.16-fold concentration gradient were prepared using DMSO, and diluted 200-fold into a 5× compound stock solution using the medium described above. The 5× compound stock solution was added to each cell culturing well the day after cell seeding at a final concentration of 1× and a DMSO content of 0.1%. DMSO was used as an experimental control. After the compound was added and the incubation was kept for 3 hours, the medium in the culture wells was removed. 50 μl of Cell lysis solution (from Advance ERK phospho-T202/Y204 kit, the same below) was added to each well, mixed well, and incubated for 30 minutes and then 16 μl of the mixed solution was transferred to an opaque 96-well plate with a white background. In addition, 16 μl of cell lysis solution was added to a well as a blank well. After transferring, 4 μl of p-ERK HTRF antibody mixture (from Advance ERK phospho-T202/Y204 kit) was added to each well. After incubation for 4 hours, HTRF fluorescence value (RLU) was read by a microplate reader, and p-ERK level inhibition rate (IR (%)=(RLU control−RLU compound)/(RLU control−RLU blank)×100%) of the compounds was calculated. The concentration of the compounds and corresponding cell p-ERK level inhibition rate were fitted using Prism 8 four-parameters method, and the IC50 value was calculated.

Another experiment has as its system AGS cells (KRAS G12D). As to the kind of experiment: Cell proliferation inhibition assay, 3D cell model (CellTiter-Glo 3D), AGS. Conditions: AGS 3D sphere plate, 5 days incubation.
Source text: as §1, §2

In the case of `CCc1cccc2cc(O)cc(-c3cc4nc(OC[C@@]56CCCN5C[C@H](F)C6)nc5c4c(n3)OC[C@@H]3[C@@H]4CC[C@H](CN53)N4)c12` [Z2, 5-ethyl-4-((5aS,6S,9R)-12-(((2R,7aS)-2-fluorotetrahydro-1H-pyrrolizin-7a(5H)-yl)methoxy)-5a,6,7,8,9,10-hexahydro-5H-4-oxa-3,10a,11,13,14-pentaaza-6,9-methanonaphtho[1,8-ab]hepten-2-yl)naphthalen-2-ol], the IC50 is 127 nM with AsPC-1 cells (KRAS G12D) (Homo sapiens, ASPC1, 120 h); 10.7 nM in experiment [1] (Homo sapiens); 10.3 nM in the experiment with AGS cells (KRAS G12D) (Homo sapiens, 120 h).
`C#Cc1c(F)ccc2cc(O)cc(-c3nc4c5c(nc(OC[C@@]67CCCN6C[C@H](F)C7)nc5c3F)N3C[C@H]5CC[C@H](N5)[C@H]3CO4)c12` [Z131-1]: the 50% inhibitory concentration (IC50) in the experiment with AsPC-1 cells (KRAS G12D) (Homo sapiens, ASPC1, 120 h) was 32.8 nM; in experiment [1] (Homo sapiens), 1.58 nM; in the experiment with AGS cells (KRAS G12D) (Homo sapiens, 120 h) it was 2.53 nM.
For `CCc1cccc2cc(O)cc(-c3nc4c5c(nc(OC[C@@]67CCCN6C[C@H](F)C7)nc5c3F)N3C[C@H]5CC[C@H](N5)[C@H]3CO4)c12` [Z140-1, 5-ethyl-4-((5aS,6S,9R)-1-fluoro-12-(((2R,7aS)-2-fluorotetrahydro-1H-pyrrolizin-7a(5H)-yl)methoxy)-5a,6,7,8,9,10-hexahydro-5H-4-oxa-3,10a,11,13,14-pentaaza-6,9-methanonaphtho[1,8-ab]hepten-2-yl)naphthalen-2-ol], the IC50 was 21.1 nM in the experiment with AsPC-1 cells (KRAS G12D), 2.85 nM in experiment [1] and 4 nM with AGS cells (KRAS G12D).
Regarding `C#Cc1cccc2cccc(-c3nc4c5c(nc(OC[C@@]67CCCN6C[C@H](F)C7)nc5c3F)N3C[C@H]5CC[C@H](N5)[C@H]3CO4)c12` [Z350, (5aS,6S,9R)-2-(8-ethynaphthalen-1-yl)-1-fluoro-12-(((2R,7aS)-2-fluorotetrahydro-1H-pyrrolizin-7a(5H)-yl)methoxy)-5a,6,7,8,9,10-hexahydro-5H-4-oxo-3,10a,11,13,14-pentaaza-6,9-methanonaphtho[1,8-ab]heptene], the IC50 came out at 203 nM in the experiment on AsPC-1 cells (KRAS G12D) (Homo sapiens, ASPC1, 120 h); 47 nM in experiment [1] (Homo sapiens); 181 nM in the experiment on AGS cells (KRAS G12D) (Homo sapiens, 120 h).
As to `CCc1cccc2cc(O)cc(-c3cc4nc(OC[C@@]56CCCN5C[C@H](F)C6)nc5c4c(c3Cl)OC[C@@H]3[C@@H]4CC[C@H](CN53)N4)c12` [Z381, 4-((5aS,6S,9R)-3-chloro-13-((2R,7aS)-2-fluorotetrahydro-1H-pyrrolizin-7a(5H)-ylmethoxy)-5a,6,7,8,9,10-hexahydro-5H-6,9-epiminoazepino[2′,1′:3,4][1, 4]oxazepino[5,6,7-de]quinazolin-2-yl)-5-ethylnaphthalen-2-ol], the half-maximal inhibitory concentration (IC50) in experiment [1] (Homo sapiens) stood at 436 nM.
